Here are results for 7 molecules from patent publication US20130149287A1, “Corticogenesis of Human Pluripotent Cells” (Cambridge Enterprise Limited, priority 2010, published 2013).

Common to all, as to type: cell-based, human
For assay [1], the system named is voltage-gated potassium channels. Kind of assay: Whole-cell patch-clamp recording of voltage-gated potassium currents in PSC-derived cortical neurons. Conditions: step depolarizations from holding potential -80 mV to +40.
The test system of another assay is AMPA receptor. Kind of assay: Whole cell patch-clamp recording of miniature excitatory post-synaptic currents (mEPSCs) in hESC/hiPSC-derived cortical neurons. Conditions: hESC- and hiPSC-derived cortical neurons, cultures between days 45 and 100. The source says: […] Borosilicate glass electrodes (resistance 6-10 MΩ) were filled with an intracellular solution containing (in mM): 135 K-Gluconate, 7 NaCl, 10 Hepes, 2 Na2ATP, 0.3 Na2GTP, 2 MgCl2. Cells were viewed using a BW50WI microscope (Olympus) with infrared DIC optics. Recordings were made with a Multiclamp 700 A amplifier (Molecular Devices). Signals were filtered at 4 kHz, sampled at 20 kHz with 16-bit resolution, and analysed using Matlab (MathWorks).

The test system of the next assay is gamma-secretase complex. Kind of assay: Sandwich ELISA of secreted Aβ40 and Aβ42 in DS cortical neuron culture supernatant under gamma-secretase inhibition. To be noted: DS cortical neurons. As for the experimental part: Quantification of secreted Aβ40 and Aβ42 was carried out by sandwich ELISA (Invitrogen) of 50 μl of cell culture supernatant from cultures of DS, iPS control and H9 hES cortical neurons. For quantification of water-soluble and insoluble Aβ peptides, water- and formic acid-soluble protein fractions from whole cell extracts of cortical cultures were prepared and levels of each peptide measured by ELISA (Invitrogen). Inhibition of gamma-secretase was carried out in DS cortical cultures by addition of DAPT (Calbiochem) every 48 hours from day 50 of differentiation onwards.
On the technique in general: An ELISA detects its analyte on a solid surface through an enzyme-linked reagent.

For assay [2], the system named is voltage-gated sodium channels.
The test system of assay [3] is hESC and hiPSC cell lines. Kind of assay: Efficiency of cortical induction by percentage of Pax6-expressing cells, with or without retinoids. Conditions: retinol acetate and all-trans retinol included together, with dual SMAD inhibition; two hESC and four iPSC lines. As for the experimental part: hESCs or iPSCs were isolated from MEFs following dissociation to single cells with Accutase (Innovative Cell Technologies) by a 1 hr pre-plate on gelatin-coated dishes in hESC medium supplemented with 10 ng/ml FGF2 and 10 μM ROCK inhibitor (Calbiochem). The non-adherent pluripotent stem cells were harvested and plated on Matrigel (BD) coated 12-well plates in MEF-conditioned hESC medium with 10 ng/ml FGF2. Once the cell culture reached 95% confluence, neural induction was initiated by changing the culture medium to a culture medium that supports neural induction, neurogenesis and neuronal differentiation (referred to as 3N medium), a 1:1 mixture of N2- and B27-containing media. N2 medium: DMEM/F12, N2 (GIBCO), 5 μg/ml Insulin, 1 mM L-Glutamine, 100 μm non-essential amino acids, 100 μM 2-mercaptoethanol, 50 U/ml Penicillin and […] Streptomycin; B27 medium: Neurobasal (Invitrogen), B27 with vitamin A (GIBCO), 200 mM Glutamine, 50 U/ml Penicillin and […] Streptomycin. […] Cells were maintained in this medium for 8-11 days, during which time the efficiency of neural induction was monitored by the appearance of cells with characteristic neuroepithelial cell morphology. […] For quantifying numbers of cells expressing specific cortical neuronal markers, cell cultures were dissociated into single cells with Accutase and resuspended at a density of 100,000 cells/ml. […]

A further assay concerns cortical rosettes. Kind of assay: Regional identity of early-stage cortical rosettes after hedgehog signalling agonist treatment.

Entries after “also recorded” stand apart in the source; their conditions may differ.

As for `Nc1ccncc1` [4-AP, 4-aminopyridine], the “voltage-gated outward potassium current” value in assay [1] is “blocks a fast-activating transient fraction of outward K current; also recorded: a transient component of which was blocked”.

As for `N#Cc1cc2[nH]c(=O)c(=O)[nH]c2cc1[N+](=O)[O-]` [CNQX], the “appearance of mEPSCs” value with AMPA receptor is listed as “blocked the appearance of mEPSCs”.

Turning to `C[C@H](NC(=O)Cc1cc(F)cc(F)c1)C(=O)N[C@H](C(=O)OC(C)(C)C)c1ccccc1` [DAPT], the “production/secretion of both Aβ peptides” value in the assay with gamma-secretase complex (longer term 21 day gamma-secretase inhibition) was “undetectable levels”. In addition, in the assay with gamma-secretase complex (short-term 4 day gamma-secretase inhibition), the “production of Aβ40 and Aβ42 (secreted)” value was “reduces production of both Aβ40 and Aβ42”.

`NC1=N[C@H](O)[C@H]2[C@H]3O[C@]4(O)O[C@@H]([C@@H](O)[C@@]2(N1)[C@@H]4O)[C@]3(O)CO` [TTX, tetrodotoxin]: in assay [2], the “fast-activating and inactivating inward voltage-gated sodium currents” value is “completely blocked”.

With `CC1=C(/C=C/C(C)=C/C=C/C(C)=C/CO)C(C)(C)CCC1` [all-trans retinol], in assay [3], the “cortical neural induction, Pax6 expression” value was “robust, efficient differentiation of all lines to cortical neural stem/progenitor cells, with almost all cells expressing Pax6”.

`c1ccc2c(Oc3nc(Nc4ccc(N5CCOCC5)cc4)c4ncn(C5CCCCC5)c4n3)cccc2c1` [purapomorphine]: the “effect on regional identity of cortical rosettes” value in the assay on cortical rosettes is “ventralises the rosettes, resulting in the genesis of GAD67+ GABAergic interneurons”.

For the molecule retinol acetate, in assay [3], the “cortical neural induction, Pax6 expression” value is recorded as “robust, efficient differentiation of all lines to cortical neural stem/progenitor cells, with almost all cells expressing Pax6”.
